Reference: US20240374613A1, “BIOACTIVE MOLECULES FOR USE IN TREATING INSULIN RESISTANCE AND/OR RESTORING GLUCOSE HOMEOSTASIS” (PALTECH, priority 2021, published 2024)

How the values were obtained:
muscle protein synthesis = details: effect in muscle protein synthesis; in the form of gel applied cutaneous; cited from earlier work
[1] = Description: (§1) The method was evaluated on 15 miniature pigs aged 5 years old (INRAE, UEPR, Saint-Gilles, France) and rendered insulin resistant after 3-4 months high fat high sucrose dict ingestion in excess according to already published data (Malbert et al., 2017b). The diet supplied 4024 kcal per kg of feed and was presented twice daily so that the animals could eat up to 150% of the recommended caloric intake (288 kcal/kg BW^0.75).
(§2) Once obese and insulin resistant, the animals were distributed into three groups of equal size (n=5 animals). One group served as control and was submitted only to a dummy implantation procedure including the initial GLP-1r PET imaging sequence using [68Ga]Ga-DO3A-VS-Cys40-Exendin-4. The second group was implanted during a laparoscopic procedure with a silicon catheter (2 mm OD) with its tip located at the portal sensor close to the minimum GLP-1r expression area according to the procedure described in 3.3. The terminal part of the catheter was bend at 90° to enter the periportal area. The catheter was secured at the entrance of the periportal cavity using a dacron surgical mesh (Biomesh P1, Cousin Bioserv Paris) glued to the silicon rubber prior to the implantation. During the implantation, the surgical mesh was glued to the outer layer of the portal vein using a surgical glue dispenser Glubran 2 and Glutack Cousin Bioserv Paris). The opposite tip of the catheter exited between the shoulder of the animal and was connected to an elastomeric pump. The pump (Easypump, II, BBraun) delivered 2 mL per hour of a solution of dihydrotestosterone (Sigma, Paris) in sterile water/DMSO (100:5 V/V) so that 10 mg of dihydrotestosterone was infused daily. The amount of the active molecule was irrespective of the body weight (BW). The pump was located in a lateral pocket of a jacket Whose size was adjusted for obese Yucantan minipigs (Lomir, Canada) and wore by the animal for the duration of the experiment. The third group was implanted during a laparoscopic procedure with an implant delivering 100 μg of dihydrostestoterone daily (Belma Technologies, Belgium) irrespective of the weight of the animal. The implant was inserted in the periportal area and the insertion hole achieved on the mesenteric layer for insertion was closed by a patch of surgical mesh glued directly on the meso using a procedure similar that described above. The anesthesia and surgical approach used for laparoscopy were identical those already described by Malbert et al. (Malbert et al., 2017b).
The protocol was described in FIG. 5 and consisted of two periods; one during which an obese insulin resistant status is achieved followed by a one-month post-surgery period during which DHT was slowly release according to the method of delivery described above. For control and implant groups only, the experimental period was also extended for an additional month to evaluate the capacity of the method to achieve a sustained effect on glucose metabolism. This extended period was not achievable on catheter implanted animals due to ethical constraints. A one-week recovery period is inserted in the protocol after the initial PET GLP-1r scan and after the surgery. The data acquired during these periods were discarded from further analysis.
Distribution of GLP-1r along the portal vein and within the abdominal organs was obtained during an initial PET scan after the administration of 25 to 40 MBq [68Ga]Ga-DO3A-VS-Cys40-Exendin-4 according to the above section 3 of the examples. The portal area of low GLP-1r expression was identified and used for insertion of either the catheter tip or the DHT implant according to the above section 3.3 relating to laparoscopic access. The anesthesia and overall procedure for imaging is identical that described by Malbert et al (Malbert et al., 2020b). The same PET scan procedure was repeated one month after the surgical procedure allowing to compare between groups and within subjects of the same group the changes in GLP-1r distribution.

[2] = DHT infusion 10 mg/24 H, mean ± SD, N=5
Description: as §1, §2
The protocol was described in FIG. 5 and consisted of two periods; one during which an obese insulin resistant status is achieved followed by a one-month post-surgery period during which DHT was slowly release according to the method of delivery described above. […]

GLP-1r = details: DHT infusion 10 mg daily, one month after surgery
Description: as §1
Once obese and insulin resistant, the animals were distributed into three groups of equal size (n=5 animals). One group served as control and was submitted only to a dummy implantation procedure including the initial GLP-1r PET imaging sequence using [68Ga]Ga-DO3A-VS-Cys40-Exendin-4. The second group was implanted during a laparoscopic procedure with a silicon catheter (2 mm OD) with its tip located at the portal sensor close to the minimum GLP-1r expression area according to the procedure described in 3.3. The terminal part of the catheter was bend at 90° to enter the periportal area. The catheter was secured at the entrance of the periportal cavity using a dacron surgical mesh (Biomesh P1, Cousin Bioserv Paris) glued to the silicon rubber prior to the implantation. During the implantation, the surgical mesh was glued to the outer layer of the portal vein using a surgical glue dispenser Glubran 2 and Glutack Cousin Bioserv Paris). […]

[3] = periportal catheter, first 30 days after surgery
[4] = 30 days after the implantation surgery
[5] = DHT infusion 10 mg/24 H, periportal catheter, first 30 days after surgery, mean ± SD, N=5
[6] = DHT infusion 10 mg/24 H, 30 days after the implantation surgery, mean ± SD, N=5

Question: What does the source list for `C[C@]12CCC(=O)C[C@@H]1CC[C@@H]1[C@@H]2CC[C@]2(C)[C@@H](O)CC[C@@H]12` [DHT, dihydrotestosterone]?
Answer: ED50 (muscle protein synthesis): 20 mg daily; Circulating insulin as fraction of the insulinemia measured in control group ([1]; DHT treated animals (both groups), fasting, 30 days after surgery): 1/3; Whole-body insulin sensitivity change compared to control ([1]; euglycemic hyperinsulinemic clamp, irrespective of the DHT group): one third increase

Question: What does the source list for `C[C@]12CCC(=O)C[C@@H]1CC[C@@H]1[C@@H]2CC[C@]2(C)[C@@H](O)CC[C@@H]12` [DHT infusion, dihydrotestosterone]?
Answer: Body weight [2, 3]: 80.8 ± 2.0 kg; Daily ingestion [2, 3]: 8.6 ± 0.03 g/kg · day; Basal metabolic rate [2, 4]: 0.0079 ± 0.0007 kcal/min/kg; Fasting glucose oxidation rate [2, 4]: 1.8 ± 0.10 mg/min · kg; Portal GLP-1r binding potential/volume of distribution compared to control (GLP-1r): more than doubled; Non portal (pancreatic) GLP-1r binding (GLP-1r; ns vs control): 4.8±0.41; Abdominal fat [1, 5]: 38.1 ± 0.7!^ % of BW; Fat [1, 5]: 36.8 ± 0.5 % of BW; Liver to spleen ratio [1, 5]: 1.1 ± 0.02; Mean arterial pressure [1, 5]: 79 ± 3.1 mmHg; Muscle [1, 5]: 6.5 ± 1.0 % of BW; Pulse rate [1, 5]: 104 ± 8.7 min⁻¹; Systolic blood pressure [1, 5]: 55 ± 2.1 mmHg; Clamp plasma insulin [1, 6]: 501 ± 14.1 μU/mL; Fasting plasma glucose [1, 6]: 4.2 ± 0.23 mmol/L; Fasting plasma insulin [1, 6]: 2.1 ± 0.21 μU/mL; Mean plasma glucose at clamp plateau [1, 6]: 4.2 ± 0.36 mmol/L; Insulin sensitivity ([1]; DHT infusion 10 mg/24 H, euglycemic hyperinsulinemic clamp plateau, 30 days after the implantation surgery, mean ± SD, N=5): 6.8 ± 0.20 dL/kg · min/μMU/mL*1E−3
